Targets include PRKCH (human) (UniProt P24723); STK33 (human) (UniProt Q9BYT3); LTK (human) (UniProt P29376); DYRK1B (human) (UniProt Q9Y463); MAP3K7 TAB1 (human) (UniProt O43318+Q15750); CDK9 CCNT1 (human) (UniProt P50750+O60563); CDK4 CCND3 (human) (UniProt P30281+P11802); CDK1 CCNB1 (human) (UniProt P06493+P14635); CDK6 CCND1 (human) (UniProt Q00534+P24385); FRK (human) (UniProt P42685); CDK2 CCNA2 (human) (UniProt P24941+P20248); CDK1 CCNA2 (human) (UniProt P06493+P20248); CDK9 CCNK (human) (UniProt O75909+P50750); CDK4 CCND1 (human) (UniProt P24385+P11802); CDK5 CDK5R1 p35 (human) (UniProt Q00535+Q15078); CDK7 CCNH MNAT1 (human) (UniProt P50613+P51948+P51946); CDK3 CCNE1 (human) (UniProt Q00526+P24864); EPHB2 (human) (UniProt P29323); CDK6 CCND3 (human) (UniProt P30281+Q00534); CDK5 CDK5R1 p25 (human) (UniProt Q00535+Q15078); CDK2 CCNE1 (human) (UniProt P24941+P24864); TLK2 (human) (UniProt Q86UE8).

Assay in all cases: radiometric filter-binding kinase assay, Kinase HotSpot
Common to all, as to settings: compound 0.5 µM; ATP 10 µM

DYRK1B (human), sequence (Q9Y463 whole entry, looked up): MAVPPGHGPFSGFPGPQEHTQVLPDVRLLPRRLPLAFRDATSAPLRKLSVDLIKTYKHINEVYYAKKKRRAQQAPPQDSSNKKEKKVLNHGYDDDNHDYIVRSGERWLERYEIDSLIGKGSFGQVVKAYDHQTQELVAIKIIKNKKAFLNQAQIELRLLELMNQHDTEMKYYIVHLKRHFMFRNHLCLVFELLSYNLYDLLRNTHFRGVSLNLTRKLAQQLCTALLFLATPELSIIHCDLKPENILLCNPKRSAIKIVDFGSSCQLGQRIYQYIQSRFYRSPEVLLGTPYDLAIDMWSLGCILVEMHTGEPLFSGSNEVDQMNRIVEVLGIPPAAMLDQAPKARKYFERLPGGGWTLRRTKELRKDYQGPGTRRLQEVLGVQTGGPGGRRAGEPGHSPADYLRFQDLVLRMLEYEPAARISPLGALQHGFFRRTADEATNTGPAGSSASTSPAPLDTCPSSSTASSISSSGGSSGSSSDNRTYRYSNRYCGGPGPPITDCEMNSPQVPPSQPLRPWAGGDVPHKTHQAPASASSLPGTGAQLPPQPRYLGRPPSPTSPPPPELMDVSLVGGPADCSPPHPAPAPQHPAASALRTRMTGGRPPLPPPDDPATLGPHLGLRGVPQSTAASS
PRKCH (human), sequence (P24723 whole entry, looked up): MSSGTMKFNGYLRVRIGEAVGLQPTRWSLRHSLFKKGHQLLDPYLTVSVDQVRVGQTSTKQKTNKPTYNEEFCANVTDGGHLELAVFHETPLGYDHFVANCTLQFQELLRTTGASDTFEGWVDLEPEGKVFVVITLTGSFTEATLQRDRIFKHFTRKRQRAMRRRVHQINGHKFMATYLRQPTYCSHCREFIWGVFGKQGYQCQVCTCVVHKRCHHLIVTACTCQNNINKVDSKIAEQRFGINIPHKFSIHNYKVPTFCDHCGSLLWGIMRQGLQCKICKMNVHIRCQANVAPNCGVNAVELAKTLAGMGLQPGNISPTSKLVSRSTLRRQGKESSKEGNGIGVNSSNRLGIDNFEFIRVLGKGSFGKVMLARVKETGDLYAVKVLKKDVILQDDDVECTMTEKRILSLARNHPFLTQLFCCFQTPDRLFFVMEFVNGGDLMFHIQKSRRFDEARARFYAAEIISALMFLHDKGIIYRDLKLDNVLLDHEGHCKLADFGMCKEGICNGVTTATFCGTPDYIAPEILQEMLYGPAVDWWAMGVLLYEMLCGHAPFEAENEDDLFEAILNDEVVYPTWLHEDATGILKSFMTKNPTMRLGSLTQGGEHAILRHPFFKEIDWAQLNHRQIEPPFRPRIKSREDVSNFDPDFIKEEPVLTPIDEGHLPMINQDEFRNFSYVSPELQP
STK33 (human), sequence (Q9BYT3 whole entry, looked up): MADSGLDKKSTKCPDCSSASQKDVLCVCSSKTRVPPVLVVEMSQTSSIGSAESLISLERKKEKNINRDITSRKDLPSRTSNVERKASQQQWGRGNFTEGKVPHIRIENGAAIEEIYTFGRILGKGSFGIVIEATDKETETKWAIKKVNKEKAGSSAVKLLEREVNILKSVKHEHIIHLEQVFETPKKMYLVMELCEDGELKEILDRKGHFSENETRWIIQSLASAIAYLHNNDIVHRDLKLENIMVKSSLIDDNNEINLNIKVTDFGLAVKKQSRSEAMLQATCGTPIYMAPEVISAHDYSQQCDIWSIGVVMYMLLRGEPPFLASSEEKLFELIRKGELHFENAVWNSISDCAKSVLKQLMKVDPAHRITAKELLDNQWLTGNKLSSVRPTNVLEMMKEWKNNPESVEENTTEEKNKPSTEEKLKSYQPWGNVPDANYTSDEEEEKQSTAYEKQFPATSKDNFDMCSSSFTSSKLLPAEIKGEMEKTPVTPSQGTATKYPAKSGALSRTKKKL
CDK4 CCND3 (human), sequence (P11802 whole entry, looked up): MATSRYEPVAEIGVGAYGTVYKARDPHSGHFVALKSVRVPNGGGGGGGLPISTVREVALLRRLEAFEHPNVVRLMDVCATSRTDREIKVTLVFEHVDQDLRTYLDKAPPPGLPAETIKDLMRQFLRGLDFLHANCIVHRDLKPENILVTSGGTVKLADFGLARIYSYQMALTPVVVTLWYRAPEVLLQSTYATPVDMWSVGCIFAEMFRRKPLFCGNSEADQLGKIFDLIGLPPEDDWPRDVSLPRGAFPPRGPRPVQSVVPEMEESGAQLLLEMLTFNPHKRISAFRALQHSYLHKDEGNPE
CDK4 CCND3 (human), sequence (P30281 whole entry, looked up): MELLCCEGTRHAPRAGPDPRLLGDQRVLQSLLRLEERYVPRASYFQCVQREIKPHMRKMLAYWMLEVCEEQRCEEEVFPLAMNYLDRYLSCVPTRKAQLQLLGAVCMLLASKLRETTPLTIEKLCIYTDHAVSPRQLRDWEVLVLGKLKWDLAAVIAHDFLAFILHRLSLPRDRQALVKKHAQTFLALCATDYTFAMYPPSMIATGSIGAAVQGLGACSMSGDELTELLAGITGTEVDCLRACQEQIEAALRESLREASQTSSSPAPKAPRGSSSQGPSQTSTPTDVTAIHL
CDK4 CCND1 (human), sequence (P11802 whole entry, looked up): as the sequence (P11802 whole entry, looked up) above
CDK4 CCND1 (human), sequence (P24385 whole entry, looked up): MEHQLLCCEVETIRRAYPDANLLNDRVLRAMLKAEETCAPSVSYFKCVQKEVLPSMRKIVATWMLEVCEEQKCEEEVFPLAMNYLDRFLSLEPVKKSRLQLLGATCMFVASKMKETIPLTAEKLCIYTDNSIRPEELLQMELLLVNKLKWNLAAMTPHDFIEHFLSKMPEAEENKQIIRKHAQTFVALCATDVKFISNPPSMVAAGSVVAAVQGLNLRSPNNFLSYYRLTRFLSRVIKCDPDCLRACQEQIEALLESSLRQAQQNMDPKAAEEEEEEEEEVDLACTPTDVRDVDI
CDK7 CCNH MNAT1 (human), sequence (P50613 whole entry, looked up): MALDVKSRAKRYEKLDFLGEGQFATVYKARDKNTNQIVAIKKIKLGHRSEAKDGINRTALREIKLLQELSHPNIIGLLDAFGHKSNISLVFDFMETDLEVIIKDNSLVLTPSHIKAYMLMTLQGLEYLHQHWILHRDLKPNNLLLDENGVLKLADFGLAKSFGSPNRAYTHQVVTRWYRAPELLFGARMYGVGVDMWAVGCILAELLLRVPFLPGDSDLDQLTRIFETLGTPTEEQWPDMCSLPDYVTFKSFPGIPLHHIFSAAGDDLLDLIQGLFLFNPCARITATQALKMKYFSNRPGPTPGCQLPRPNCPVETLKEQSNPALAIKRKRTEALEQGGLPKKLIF
CDK7 CCNH MNAT1 (human), sequence (P51946 whole entry, looked up): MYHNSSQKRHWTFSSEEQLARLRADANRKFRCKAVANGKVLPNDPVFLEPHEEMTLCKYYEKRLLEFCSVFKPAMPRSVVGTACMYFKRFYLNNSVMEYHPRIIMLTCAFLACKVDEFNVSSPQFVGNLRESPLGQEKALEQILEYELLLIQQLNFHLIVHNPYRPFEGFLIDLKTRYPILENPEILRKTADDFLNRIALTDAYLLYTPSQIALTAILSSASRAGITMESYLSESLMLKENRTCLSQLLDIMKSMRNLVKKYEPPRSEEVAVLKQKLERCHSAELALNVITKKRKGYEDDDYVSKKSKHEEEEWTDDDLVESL
CDK7 CCNH MNAT1 (human), sequence (P51948 whole entry, looked up): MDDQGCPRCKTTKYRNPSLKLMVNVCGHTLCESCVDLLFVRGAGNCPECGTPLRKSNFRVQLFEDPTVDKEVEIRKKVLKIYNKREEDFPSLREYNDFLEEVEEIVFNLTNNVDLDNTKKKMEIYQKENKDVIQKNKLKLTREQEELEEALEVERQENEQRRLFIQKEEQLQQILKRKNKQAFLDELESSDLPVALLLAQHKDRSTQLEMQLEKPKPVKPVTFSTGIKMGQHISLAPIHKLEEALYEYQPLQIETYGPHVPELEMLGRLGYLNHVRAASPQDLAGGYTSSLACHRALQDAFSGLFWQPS
CDK2 CCNA2 (human), sequence (P20248 whole entry, looked up, other chains not shown): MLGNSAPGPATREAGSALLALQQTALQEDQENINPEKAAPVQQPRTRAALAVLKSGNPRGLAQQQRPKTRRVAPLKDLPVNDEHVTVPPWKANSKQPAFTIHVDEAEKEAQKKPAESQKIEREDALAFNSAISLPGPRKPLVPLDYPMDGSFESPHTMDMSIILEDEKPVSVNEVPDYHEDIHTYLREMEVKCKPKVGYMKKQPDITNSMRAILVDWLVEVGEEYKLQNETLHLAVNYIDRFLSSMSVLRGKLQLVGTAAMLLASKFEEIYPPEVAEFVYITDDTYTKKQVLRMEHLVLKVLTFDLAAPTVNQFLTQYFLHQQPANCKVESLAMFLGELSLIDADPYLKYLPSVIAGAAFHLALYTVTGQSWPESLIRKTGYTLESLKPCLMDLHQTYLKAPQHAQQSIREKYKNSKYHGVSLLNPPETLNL
CDK2 CCNE1 (human), sequence (P24864 whole entry, looked up, other chains not shown): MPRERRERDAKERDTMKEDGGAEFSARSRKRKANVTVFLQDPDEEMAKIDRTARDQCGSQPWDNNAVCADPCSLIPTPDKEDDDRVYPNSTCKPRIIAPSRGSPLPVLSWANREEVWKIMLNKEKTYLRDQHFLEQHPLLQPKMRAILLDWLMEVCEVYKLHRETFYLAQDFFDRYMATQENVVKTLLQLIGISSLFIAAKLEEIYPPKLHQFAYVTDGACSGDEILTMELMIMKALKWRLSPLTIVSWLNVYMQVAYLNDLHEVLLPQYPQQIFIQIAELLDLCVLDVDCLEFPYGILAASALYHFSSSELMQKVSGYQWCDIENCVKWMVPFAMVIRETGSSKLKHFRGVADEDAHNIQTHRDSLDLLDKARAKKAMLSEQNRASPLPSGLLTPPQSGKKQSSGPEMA

Regarding `CC(C)n1cnc2c(NCc3ccccc3)nc(NCCCO)nc21`, the residual activity on PRKCH (human) is 77%.
For `O=C(Nc1nc2ccccc2n1CCN1CCOCC1)c1cccc([N+](=O)[O-])c1`, the residual activity at PRKCH (human) was 94.9%.
Regarding `CO[C@H]1[C@@H](OC)C[C@H](C)[C@@H](OC)C2=CC(=O)C=C(NC(=O)/C(C)=C\C=C/[C@H](OC)[C@@H](OC(N)=O)/C(C)=C\[C@@H]1C)C2=O`, the residual activity on STK33 (human) came out at 97%; on LTK (human) it was 98.5%; at DYRK1B (human) it was 104%; at PRKCH (human), 95.3%.
Consider `Cc1nc(Nc2ncc(C(=O)Nc3c(C)cccc3Cl)s2)cc(N2CCN(CCO)CC2)n1`, for which the residual activity is 87.3% on MAP3K7 TAB1 (human); 84.1% on CDK9 CCNT1 (human); 99.1% on CDK4 CCND3 (human); 93.9% at CDK1 CCNB1 (human); 95.5% at CDK6 CCND1 (human); -0.878% at FRK (human). The residual activity on CDK2 CCNA2 (human) stood at 92.4%; at CDK1 CCNA2 (human) it was 96.3%; on CDK9 CCNK (human) it was 104%; at CDK4 CCND1 (human), 94.4%; at CDK5 CDK5R1 p35 (human), 101%; at CDK7 CCNH MNAT1 (human), 112%. Moreover, the residual activity is 91.7% at CDK3 CCNE1 (human); -0.191% at EPHB2 (human); 103% at CDK6 CCND3 (human); 102% at CDK5 CDK5R1 p25 (human); 106% on PRKCH (human); 95.9% at CDK2 CCNE1 (human).
On to `O=[N+]([O-])/C=C/c1ccc2c(c1)OCO2`, for which the residual activity on STK33 (human) was 94.2%; at LTK (human), 96.4%; on DYRK1B (human), 112%; at PRKCH (human), 103%.
As to `Cc1cc(C)c(/C=C2\C(=O)Nc3ccccc32)[nH]1`, the results for the residual activity on TLK2 (human) and on PRKCH (human) were 98.5% and 94.7%, respectively.
On to `COC[C@H]1OC(=O)c2coc3c2[C@@]1(C)C1=C(C3=O)[C@@H]2CCC(=O)[C@@]2(C)C[C@H]1OC(C)=O`, for which the residual activity at MAP3K7 TAB1 (human) is 97.2%; at CDK9 CCNT1 (human), 93.7%; on CDK4 CCND3 (human), 98.8%; on CDK1 CCNB1 (human), 101%; at CDK6 CCND1 (human), 90.1%; on CDK2 CCNA2 (human) it was 93.5%. For the same compound, the residual activity at CDK1 CCNA2 (human) came to 97%; on CDK9 CCNK (human), 107%; on CDK4 CCND1 (human), 94.8%; at CDK5 CDK5R1 p35 (human) it was 88.7%; on CDK7 CCNH MNAT1 (human), 93.3%; on CDK3 CCNE1 (human) it was 95.2%. For the same compound, the residual activity at STK33 (human) worked out at 88.2%; on DYRK1B (human) it was 100%; at CDK6 CCND3 (human), 85.8%; at CDK5 CDK5R1 p25 (human), 87.6%; on PRKCH (human), 100%; at CDK2 CCNE1 (human), 105%.
